Reference: patent US20260262643A1, “HERBICIDAL BENZOXAZINES” (FMC CORPORATION, priority 2022, published 2026)

Key:
barnyardgrass [1] = test: Test C preemergence; format: in vivo, Echinochloa crusgalli; details: preemergence, 0 to 100 scale (0 no effect, 100 complete control)
Summary of the method: (§1)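 Seeds sown in loam soil–sand blend received a directed preemergence soil spray of test chemical in non-phytotoxic solvent with surfactant; postemergence plants (2–10 cm, one- to two-leaf stage) were sprayed with the same formulation. Greenhouse-held 10 days, then visually rated for injury versus untreated controls, 0 (no effect) to 100 (complete control).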

blackgrass [2] = test: Test C preemergence; format: in vivo, Alopecurus myosuroides; details: preemergence, 0 to 100 scale (0 no effect, 100 complete control)
Summary of the method: as §1

corn [3] = test: Test C preemergence; format: in vivo, Zea mays; details: preemergence, 0 to 100 scale (0 no effect, 100 complete control)
Summary of the method: as §1

green foxtail [4] = test: Test C preemergence; format: in vivo, Setaria viridis; details: preemergence, 0 to 100 scale (0 no effect, 100 complete control)
Summary of the method: as §1

kochia [5] = test: Test C preemergence; format: in vivo, Bassia scoparia; details: preemergence, 0 to 100 scale (0 no effect, 100 complete control)
Summary of the method: as §1

oat, wild [6] = test: Test C preemergence; format: in vivo, Avena fatua; details: preemergence, 0 to 100 scale (0 no effect, 100 complete control)
Summary of the method: as §1

pigweed, palmer [7] = test: Test C preemergence; format: in vivo, Amaranthus palmeri; details: preemergence, 0 to 100 scale (0 no effect, 100 complete control)
Summary of the method: as §1

ragweed [8] = test: Test C preemergence; format: in vivo, Ambrosia artemisiifolia; details: preemergence, 0 to 100 scale (0 no effect, 100 complete control)
Summary of the method: as §1

ryegrass, Italian [9] = test: Test C preemergence; format: in vivo, Lolium multiflorum; details: preemergence, 0 to 100 scale (0 no effect, 100 complete control)
Summary of the method: as §1

soybean [10] = test: Test C preemergence; format: in vivo, Glycine max; details: preemergence, 0 to 100 scale (0 no effect, 100 complete control)
Summary of the method: as §1

wheat [11] = test: Test C preemergence; format: in vivo, Triticum aestivum; details: preemergence, 0 to 100 scale (0 no effect, 100 complete control)
Summary of the method: as §1

barnyardgrass [12] = test: Test C postemergence; format: in vivo, Echinochloa crusgalli; details: postemergence, 10 days
Summary of the method: as §1

blackgrass [13] = test: Test C postemergence; format: in vivo, Alopecurus myosuroides; details: postemergence, 10 days
Summary of the method: as §1

corn [14] = test: Test C postemergence; format: in vivo, Zea mays; details: postemergence, 10 days
Summary of the method: as §1

kochia [15] = test: Test C postemergence; format: in vivo, Bassia scoparia; details: postemergence, 10 days
Summary of the method: as §1

oat, wild [16] = test: Test C postemergence; format: in vivo, Avena fatua; details: postemergence, 10 days
Summary of the method: as §1

pigweed, palmer [17] = test: Test C postemergence; format: in vivo, Amaranthus palmeri; details: postemergence, 10 days
Summary of the method: as §1

ragweed [18] = test: Test C postemergence; format: in vivo, Ambrosia artemisiifolia; details: postemergence, 10 days
Summary of the method: as §1

ryegrass, Italian [19] = test: Test C postemergence; format: in vivo, Lolium multiflorum; details: postemergence, 10 days
Summary of the method: as §1

soybean [20] = test: Test C postemergence; format: in vivo, Glycine max; details: postemergence, 10 days
Summary of the method: as §1

wheat [21] = test: Test C postemergence; format: in vivo, Triticum aestivum; details: postemergence, 10 days
Summary of the method: as §1

galium = test: Test C postemergence; format: in vivo, Galium aparine; details: postemergence, 10 days
Summary of the method: as §1

horseweed = test: Test C postemergence; format: in vivo, Erigeron canadensis; details: postemergence, 10 days
Summary of the method: as §1

barnyardgrass [22] = test: Test D flooded paddy test; format: in vivo, Echinochloa crus-galli; details: 250 g ai/ha, applied to paddy water, visual rating after 13 to 14 days, scale 0 to 100 (0 no effect, 100 complete control)
Protocol: (§2) Plant species in the flooded paddy test selected from barnyardgrass (Echinochloa crus-galli), ducksalad (Heteranthera limosa), rice (Oryza sativa), and sedge, umbrella (small-flower umbrella sedge, Cyperus difformis) were grown to the 2-leaf stage for testing. At time of treatment, test pots were flooded to 3 cm above the soil surface, treated by application of test compounds directly to the paddy water, and then maintained at that water depth for the duration of the test. Treated plants and controls were maintained in a greenhouse for 13 to 14 days, after which time all species were compared to controls and visually evaluated. Plant response ratings, summarized in Table D, are based on a scale of 0 to 100 where 0 is no effect and 100 is complete control. A dash (-) response means no test result.

ducksalad = test: Test D flooded paddy test; format: in vivo, Heteranthera limosa; details: 250 g ai/ha, applied to paddy water, visual rating after 13 to 14 days, scale 0 to 100 (0 no effect, 100 complete control)
Protocol: as §2

sedge, umbrella = test: Test D flooded paddy test; format: in vivo, Cyperus difformis; details: 250 g ai/ha, applied to paddy water, visual rating after 13 to 14 days, scale 0 to 100 (0 no effect, 100 complete control)
Protocol: as §2

green foxtail [23] = test: Test C postemergence; format: in vivo, Setaria viridis; details: postemergence, 10 days
Summary of the method: as §1

[24] = 125 g ai/ha, 0 to 100 scale, 0 no effect, 100 complete control
[25] = 500 g ai/ha, 0 to 100 scale (0 no effect, 100 complete control)

COC[C@H]1CN(C(=O)c2cc(-n3cnc(C(C)(C)C)n3)ccc2OC)c2cccc(Cl)c2O1 [Compound 230]
Barnyardgrass plant response rating (barnyardgrass [1]; Test C, 125 g ai/ha): 60
Blackgrass plant response rating (blackgrass [2]; Test C, 125 g ai/ha): 70
Corn plant response rating (corn [3]; Test C, 125 g ai/ha): 20
Foxtail, Green plant response rating (green foxtail [4]; Test C, 125 g ai/ha): 100
Kochia plant response rating (kochia [5]; Test C, 125 g ai/ha): 0
Oat, Wild plant response rating (oat, wild [6]; Test C, 125 g ai/ha): 50
Pigweed, Palmer plant response rating (pigweed, palmer [7]; Test C, 125 g ai/ha): 100
Ragweed plant response rating (ragweed [8]; Test C, 125 g ai/ha): 60
Ryegrass, Italian plant response rating (ryegrass, Italian [9]; Test C, 125 g ai/ha): 80
Soybean plant response rating (soybean [10]; Test C, 125 g ai/ha): 90
Wheat plant response rating (wheat [11]; Test C, 125 g ai/ha): 30
Plant response rating, Barnyardgrass (barnyardgrass [12]; [24]): 60
Plant response rating, Blackgrass (blackgrass [13]; [24]): 40
Plant response rating, Corn (corn [14]; [24]): 60
Plant response rating, Kochia (kochia [15]; [24]): 90
Plant response rating, Oat, Wild (oat, wild [16]; [24]): 20
Plant response rating, Pigweed, Palmer (pigweed, palmer [17]; [24]): 100
Plant response rating, Ragweed (ragweed [18]; [24]): 90
Plant response rating, Ryegrass, Italian (ryegrass, Italian [19]; [24]): 60
Plant response rating, Soybean (soybean [20]; [24]): 100
Plant response rating, Wheat (wheat [21]; [24]): 40
Plant response rating, Galium (galium; [24]): 100
Plant response rating, Horseweed (horseweed; [24]): 40
Plant response rating, Barnyardgrass (Flood) (barnyardgrass [22]): 15
Plant response rating, Ducksalad (Flood) (ducksalad): 70
Plant response rating, Sedge, Umbrella (Flood) (sedge, umbrella): 98

COC(=O)N(C)c1ncn(-c2cccc(C(=O)N3C[C@H](C)Oc4c(C)cccc43)c2)n1 [30 0]
Barnyardgrass plant response rating (barnyardgrass [1]; 500 g ai/ha): 50
Barnyardgrass plant response rating (barnyardgrass [1]; Test C, 125 g ai/ha): 0
Blackgrass plant response rating (blackgrass [2]; 500 g ai/ha): 20
Blackgrass plant response rating (blackgrass [2]; Test C, 125 g ai/ha): 0
Corn plant response rating (corn [3]; 500 g ai/ha): 10
Corn plant response rating (corn [3]; Test C, 125 g ai/ha): 0
Foxtail, Green plant response rating (green foxtail [4]; 500 g ai/ha): 100
Foxtail, Green plant response rating (green foxtail [4]; Test C, 125 g ai/ha): 80
Kochia plant response rating (kochia [5]; 500 g ai/ha): 70
Kochia plant response rating (kochia [5]; Test C, 125 g ai/ha): 50
Oat, Wild plant response rating (oat, wild [6]; 500 g ai/ha): 30
Oat, Wild plant response rating (oat, wild [6]; Test C, 125 g ai/ha): 20
Pigweed, Palmer plant response rating (pigweed, palmer [7]; 500 g ai/ha): 80
Pigweed, Palmer plant response rating (pigweed, palmer [7]; Test C, 125 g ai/ha): 20
Ragweed plant response rating (ragweed [8]; 500 g ai/ha): 20
Ragweed plant response rating (ragweed [8]; Test C, 125 g ai/ha): 0
Ryegrass, Italian plant response rating (ryegrass, Italian [9]; 500 g ai/ha): 80
Ryegrass, Italian plant response rating (ryegrass, Italian [9]; Test C, 125 g ai/ha): 60
Soybean plant response rating (soybean [10]; 500 g ai/ha): 20
Soybean plant response rating (soybean [10]; Test C, 125 g ai/ha): 0
Wheat plant response rating (wheat [11]; 500 g ai/ha): 20
Wheat plant response rating (wheat [11]; Test C, 125 g ai/ha): 0
Plant response rating, Barnyardgrass (barnyardgrass [12]; [24]): 10
Plant response rating, Barnyardgrass (barnyardgrass [12]; [25]): 50
Plant response rating, Blackgrass (blackgrass [13]; [24]): 0
Plant response rating, Blackgrass (blackgrass [13]; [25]): 80
Plant response rating, Corn (corn [14]; [24]): 0
Plant response rating, Corn (corn [14]; [25]): 70
Plant response rating, Foxtail, Green (green foxtail [23]; [24]): 10
Plant response rating, Foxtail, Green (green foxtail [23]; [25]): 50
Plant response rating, Kochia (kochia [15]; [24]): 50
Plant response rating, Kochia (kochia [15]; [25]): 60
Plant response rating, Oat, Wild (oat, wild [16]; [24]): 0
Plant response rating, Oat, Wild (oat, wild [16]; [25]): 40
Plant response rating, Pigweed, Palmer (pigweed, palmer [17]; [24]): 30
Plant response rating, Pigweed, Palmer (pigweed, palmer [17]; [25]): 40
Plant response rating, Ragweed (ragweed [18]; [24]): 0
Plant response rating, Ragweed (ragweed [18]; [25]): 50
Plant response rating, Ryegrass, Italian (ryegrass, Italian [19]; [24]): 10
Plant response rating, Ryegrass, Italian (ryegrass, Italian [19]; [25]): 80
Plant response rating, Soybean (soybean [20]; [24]): 70
Plant response rating, Soybean (soybean [20]; [25]): 100
Plant response rating, Wheat (wheat [21]; [24]): 10
Plant response rating, Wheat (wheat [21]; [25]): 30
Plant response rating, Galium (galium; [24]): 60
Plant response rating, Galium (galium; [25]): 90
Plant response rating, Horseweed (horseweed; [24]): 30
Plant response rating, Horseweed (horseweed; [25]): 30
